Assay results: patent US6528049B2, “Bisexual attractants, aggregants and arrestants for adults and larvae of codling moth and other species of lepidoptera” (Trece, Inc., priority 1999, dated 2003)

Key:
codling moth = assay: Trap capture with purified (2E,4E) and (2E,4Z) 2,4-decadienoic acid esters; assay type: in vivo, Cydia pomonella; details: 1 mg dose/gray septum; four orchards; means of 21 trap checks
Description: In this study, test compounds were highly purified synthetic samples. The purities of the compounds are expressed as percentages. Individual traps were baited with 1 mg dose/gray septum; five replicate blocks in four orchards; means of 21 total trap checks.

male codling moth = assay: Pheromone preference paired-trap test: pheromone alone vs pheromone + HPV; assay type: in vivo, Cydia pomonella; details: for % Change (Ph+HPV/Phxl00) in Male CM Capture / Impact of HPV Blend on Pheromone Attractancy to Male CM / Male CM Capture with Pheromone + HPV Blend: ♂♂/trap/night ± SEM: Table 9; for Male CM Capture with Pheromone + HPV Blend: ♂♂/trap/night ± SEM / Male CM Captured, HPV + Pheromone Trap: ± SEM / Male CM Captured, HPV + Pheromone Trap ± SEM: 10 mg/red septum; for % of pheromone-alone capture (line under HPV + Pheromone value) / Male CM Captured, HPV + Pheromone Trap: ± SEM / Male CM Captured, HPV + Pheromone Trap ± SEM / Average % Change in ♂♂ CM Capture: Table 8; for Average % Change in ♂♂ CM Capture: average of four orchards
From the text: Interaction of synthetic apple and pear odor blends, described above in Table 2, and their effect on the attractancy of synthetic pheromone to codling moth was also studied. For that purpose, series of paired-traps containing pheromone alone or pheromone in combination with synthetic host plant volatile blends were placed in walnut orchards.
Interaction of individual synthetic host plant volatiles or blends on the attractiveness of synthetic male pheromone to male codling moth administered in paired traps with pheromone alone or with pheromone and attractant 10 mg/red septum was also studied.
Pheromone traps (sticky wing traps, Trécé, Inc.,) were hung as pairs: a pheromone only baited-trap vs. a pheromone+HPV blend-baited trap. The two traps of a test pair were attached in close competitive proximity (120 cm apart) on a common hanger bar (PVC pipe). The paired-trap bars were hung 5-6 meters high on the outer canopies of trees. A single pair-trap was hung per tree and different replicate test trees were separated by five rows in a matrix through the orchard. Each pheromone trap was baited with ½ of a commercial pheromone-impregnated rubber septum (Trécé, Inc.). Septa were sectioned by a razor blade. The HPV blends evaporated from their own separate impregnated rubber septa containing 10 mg diluted in hexane/septum).
Tests were conducted in a Harley English walnut orchard. Tests spanned the entire two year seasons April-October with traps checked, males sexed, counted and removed every 2-7 days. Significant effect on pheromone trap capture were judged by paired tests either T-test or a nonparametric test.

CCCCC/C=C\C=C\C(=O)OCCCCCC [Hexyl (2E,4Z)-2,4-Decadienoate (100%), Hexyl (2E,4Z)-2,4-Decadienoate]
FEMALE CM Captured: ♂♂/trap/night ± SEM (codling moth): 0.02 ♀♀/trap/night
MALE CM Captured: ♂♂/trap/night ± SEM (codling moth): 0.01 ± 0.01 ♂♂/trap/night
Total CM Captured: CM/trap/night ± SEM (codling moth): 0.02 ± 0.02 CM/trap/night

CCCCC/C=C/C=C/C(=O)OC(C)C [Isopropyl (2E,4E)-2,4-Decadienoate]
FEMALE CM Captured: ♂♂/trap/night ± SEM (codling moth): 0.09 ± 0.04 ♀♀/trap/night
MALE CM Captured: ♂♂/trap/night ± SEM (codling moth): 0.05 ± 0.02 ♂♂/trap/night
Total CM Captured: CM/trap/night ± SEM (codling moth): 0.14 ± 0.05 CM/trap/night

CCCCC/C=C/C=C/C(=O)OC [Methyl (2E,4E)-2,4-Decadienoate]
FEMALE CM Captured: ♂♂/trap/night ± SEM (codling moth): 0.04 ± 0.03 ♀♀/trap/night
MALE CM Captured: ♂♂/trap/night ± SEM (codling moth): 0.01 ± 0.01 ♂♂/trap/night
Total CM Captured: CM/trap/night ± SEM (codling moth): 0.05 ± 0.03 CM/trap/night

C=CC(=C)CCC=C(C)C [Myrcene]
% Change (Ph+HPV/Phxl00) in Male CM Capture (male codling moth): 84%
Impact of HPV Blend on Pheromone Attractancy to Male CM (male codling moth): No Effect
Male CM Capture with Pheromone + HPV Blend: ♂♂/trap/night ± SEM (male codling moth): 1.03 ± 0.26 ♂♂/trap/night

C=C/C(C)=C/C/C=C(\C)CCC=C(C)C [alpha-Farnesene]
% Change (Ph+HPV/Phxl00) in Male CM Capture (male codling moth): 86%
Impact of HPV Blend on Pheromone Attractancy to Male CM (male codling moth): No Effect
Male CM Capture with Pheromone + HPV Blend: ♂♂/trap/night ± SEM (male codling moth): 1.38 ± 0.39 ♂♂/trap/night

CC1=CCC(C(C)C)=CC1 [gamma-Terpinene]
% Change (Ph+HPV/Phxl00) in Male CM Capture (male codling moth): 93%
Impact of HPV Blend on Pheromone Attractancy to Male CM (male codling moth): No Effect
Male CM Capture with Pheromone + HPV Blend: ♂♂/trap/night ± SEM (male codling moth): 0.88 ± 0.28 ♂♂/trap/night

CCCCC/C=C/C=C/C(=O)OCCC [n-Propyl (2E,4E)-2,4-Decadienoate]
FEMALE CM Captured: ♂♂/trap/night ± SEM (codling moth): 0.19 ± 0.07 ♀♀/trap/night
MALE CM Captured: ♂♂/trap/night ± SEM (codling moth): 0.17 ± 0.13 ♂♂/trap/night
Total CM Captured: CM/trap/night ± SEM (codling moth): 0.36 ± 0.19 CM/trap/night

Cc1ccc(C(C)C)cc1 [para-Cymene]
% of pheromone-alone capture (line under HPV + Pheromone value) (male codling moth; Orchard #1): 117%
Male CM Captured, HPV + Pheromone Trap: ± SEM (male codling moth; Orchard #1): 0.92 ± 0.20 ♂♂/trap/night
% of pheromone-alone capture (line under HPV + Pheromone value) (male codling moth; Orchard #2): 102%
Male CM Captured, HPV + Pheromone Trap ± SEM (male codling moth; Orchard #2): 1.39 ± 0.38 ♂♂/trap/night
% of pheromone-alone capture (line under HPV + Pheromone value) (male codling moth; Orchard #3): 108%
Male CM Captured, HPV + Pheromone Trap: ± SEM (male codling moth; Orchard #3): 4.76 ± 0.82 ♂♂/trap/night
% of pheromone-alone capture (line under HPV + Pheromone value) (male codling moth; Orchard #4): 136%
Male CM Captured, HPV + Pheromone Trap: ± SEM (male codling moth; Orchard #4): 4.27 ± 0.71 ♂♂/trap/night
Average % Change in ♂♂ CM Capture (male codling moth): 116%

C=C1CCC2CC1C2(C)C (stereo not drawn) [β-Pinene]
% of pheromone-alone capture (line under HPV + Pheromone value) (male codling moth; Orchard #1): 61%
Male CM Captured, HPV + Pheromone Trap: ± SEM (male codling moth; Orchard #1): 0.75 ± 0.50 ♂♂/trap/night
% of pheromone-alone capture (line under HPV + Pheromone value) (male codling moth; Orchard #2): 63%
Male CM Captured, HPV + Pheromone Trap ± SEM (male codling moth; Orchard #2): 1.25 ± 0.29 ♂♂/trap/night
% of pheromone-alone capture (line under HPV + Pheromone value) (male codling moth; Orchard #3): 130%
Male CM Captured, HPV + Pheromone Trap: ± SEM (male codling moth; Orchard #3): 3.37 ± 0.53 ♂♂/trap/night
% of pheromone-alone capture (line under HPV + Pheromone value) (male codling moth; Orchard #4): 112%
Male CM Captured, HPV + Pheromone Trap: ± SEM (male codling moth; Orchard #4): 4.95 ± 0.76 ♂♂/trap/night
Average % Change in ♂♂ CM Capture (male codling moth): 92%
